“And” between values parts separate entries of the source, which are not always exact repeats. Equal entries are not always repeated.

One data set concerns T lymphocyte. The experiment in a line: ConA induced T-lymphocyte proliferation ([3H]thymidine). The class given is cell-based, mouse. Particulars: for Lymphocyte Proliferation (cpm) T cell: control 125789. Here is the method:
(§1) Mice were sacrificed by cervical dislocation, and spleens were collected under sterile conditions then teased through a nylon mesh. Erythrocytes were lysed. Cells were washed and resuspended at 5×10^6/ml in RPMI-1640 media containing 10% FBS. For one 96 well plate assay, 100 pt of cells, 50 μl of sample and 50 μl of ConA/LPS were added into each well with the final volume 200 μl. The control wells were set up with 50 μl of RPMI-1640 media instead of ConA/LPS.
(§2) Plates were incubated for 48 h (ConA) or 60 h (LPS), respectively, at 37° C., 5% CO2 in a humidified incubator. In the last 8 h of incubation, 25 μl (1.9×10^10 Bq) of [^3H]thymidine was added. After plates were incubated for 48 h, the plates (ConA) were stored at −20° C., then after another 12 h, the plates (LPS) were stored at −20° C.
(§3) At the end of incubation, pulsed cells were harvested on a glass filter using a cell harvester ([…]96®, TOMTEC) and allowed to dry. Incorporation of radioactive thymidine was determined by using liquid Scintillation and Luminescence Counters (MicroBeta Trilux®, PerkinElmer).

For another data set, the system named is lymphocyte. The data set can be described thus: MTT cytotoxic assay. The class given is cell-based, mouse. Particulars: for Cytotoxicity OD Value: control 0.337. Here is the method:
(§4) Mice were sacrificed by cervical dislocation, and spleens were collected under sterile conditions then teased through a nylon mesh. Erythrocytes were lysed. Cells were washed and resuspended at 5×10^6/ml in RPMI-1640 media supplemented with 10% FBS.
(§5) For one 96 well plate assay, 90 μl of cells, 45 μl of sample and 45 μl of RPMI-1640 media with 10% FBS were added into each well with the final volume 180 μl. The negative control wells (containing 90 μl of RPMI-1640 media with 10% FBS and 90 pt of cells), blank control (180 μl of RPMI-1640 media with 10% FBS) were also performed. Incubate plate for 48 hours at 37° C., 5% CO2 in a humidified incubator. 18 μl of MTT solution (5 mg/ml) was added for 6-7 h.
(§6) 90 μl of MTT lysis solution was added to each well followed by a further incubation at 37° C. for 6-7 h. And the absorbance was measured at 570 nm using a plate reader.

The subject of a further data set is B lymphocyte. The experiment in a line: LPS induced B-lymphocyte proliferation ([3H]thymidine). The class given is cell-based, mouse. The following applies: for Lymphocyte Proliferation (cpm) B cell: control 87373. The method, then: as §1, §2, §3
Data set [1] is described as follows: Acute toxicity (LD50) test in mice, intraperitoneal injection. The class given is in vivo, mouse. Particulars: mouse, in vivo, ip; mice, single intraperitoneal injection, 14 days, Bliss' method. Here is the method: Mice were single administered with LLDT-8 by intraperitoneal injection, and observed for clinical signs of toxicity immediately and the following 14 days. Necropsy was performed on all animals that died and on all survivors at the end of the 2-week study. Death was seen from the next day after treatment and reached a peak at the 2-4 day. All gross pathological changes should be recorded for each animal. There was no gender difference in survival.
LLDT-8 is much less toxic than its parent compound, […].

The next data set in a line: MTT cytotoxic assay. The class given is cell-based, mouse. The following applies: mouse; restated; read-out: IC50 (lymphocyte cytotoxicity, restated). The method, then:
as §4, §5, §6
(Tetrazolium dyes change colour on reduction, which living cells bring about.)

The subject of data set [2] is DNFB-induced mouse DTH response. The experiment in a line: DNFB-induced mouse delayed type hypersensitivity response (DTH). The class given is in vivo. The following applies: Balb/c mice. Here is the method:
Female Balb/c mice (age of 6-8 wk) were randomly divided into groups and immunized with 20 μl 0.5% DNFB solution in absolute acetone-olive oil (4:1) on each hind foot on day 0 and 1;
7-9 days after the initial immunization, mice were boosted with 10 μl 0.4% DNFB on both sides of the left ear, whereas the right ear was treated with vehicle alone;
Compounds were administered intraperitoneally (i.p.) or orally (p.o.) to the mice 1 h before DNFB booster immunization and 12 h later.
Ear swelling and other indexes were assessed 24-48 h after booster immunization.
Note: Female ICR mice (age of 6-8 wk) were immunized with 0.7% DNFB solution and boosted with 0.6% DNFB solution.

In the case of `CC(C)[C@]12O[C@H]1[C@@H]1O[C@@]13[C@@]1(C)CCC4=C(COC4=O)[C@@]14O[C@H]4[C@@H]1O[C@@]13C2=O` [LLDT-16, (5R, 6S)-5,6-epoxytriptonide], the melting point (as a rule, the temperature of the solid-liquid transition) was 252 to 254 °C (dec.). For the same compound, the “Lymphocyte Proliferation (cpm) T cell” value in the data set with T lymphocyte (10^−6 M) is on record as 76204 cpm. The “Lymphocyte Proliferation (cpm) T cell” value with T lymphocyte (10^−7 M) came out at 75599 cpm. For the same compound, the “Lymphocyte Proliferation (cpm) T cell” value with T lymphocyte (10^−8 M) was 89029 cpm. Moreover, in the data set on lymphocyte (10^−6 M), the “Cytotoxicity OD Value” is 0.304. Also, the “Cytotoxicity OD Value” in the data set with lymphocyte (10^−7 M) stood at 0.337. The “Cytotoxicity OD Value” in the data set with lymphocyte (10^−8 M) was determined as 0.372. Moreover, the “Lymphocyte Proliferation (cpm) B cell” value in the data set on B lymphocyte (10^−6 M) is 80768 cpm. Also, the “Lymphocyte Proliferation (cpm) B cell” value with B lymphocyte (10^−7 M) is 82285 cpm. The “Lymphocyte Proliferation (cpm) B cell” value in the data set with B lymphocyte (10^−8 M) came out at 71877 cpm.

As for `CC(C)[C@]12O[C@H]1[C@@H]1O[C@@]13[C@@]1(C)CCC4=C(COC4=O)C1=C[C@@H]1O[C@@]13C2=O` [LLDT-15, Δ^5,6-dehydrotriptonide], the melting point was 242 to 244 °C (dec.). Moreover, the “Lymphocyte Proliferation (cpm) T cell” value with T lymphocyte (10^−6 M) was found to be 10296 cpm. Besides, the “Lymphocyte Proliferation (cpm) T cell” value in the data set on T lymphocyte (10^−7 M) turned out to be 63914 cpm. The “Lymphocyte Proliferation (cpm) T cell” value with T lymphocyte (10^−8 M) is given as 69613 cpm. Also, the “Cytotoxicity OD Value” in the data set on lymphocyte (10^−6 M) is 0.156. The “Cytotoxicity OD Value” with lymphocyte (10^−7 M) turned out to be 0.316. Moreover, in the data set on lymphocyte (10^−8 M), the “Cytotoxicity OD Value” is 0.327. Moreover, the “Lymphocyte Proliferation (cpm) B cell” value in the data set with B lymphocyte (10^−6 M) came to 30889 cpm. Moreover, in the data set with B lymphocyte (10^−7 M), the “Lymphocyte Proliferation (cpm) B cell” value stood at 85240 cpm. Further, the “Lymphocyte Proliferation (cpm) B cell” value in the data set with B lymphocyte (10^−8 M) is 77139 cpm.

`CC(C)[C@]12O[C@H]1[C@@H]1O[C@]13[C@]1(O[C@H]1C[C@H]1C4=C(CC[C@@]13C)C(=O)OC4)[C@@H]2O` [LLDT-2, triptolide]: the LD50 (usually the dose expected to kill half of the subjects tested) at 14 days in data set [1] is 0.5 mg/kg. Moreover, the “ED50 for inhibiting T lymphocyte proliferation induced by ConA” value with T lymphocyte (48 h) amounted to 2.44 ng/mL. Moreover, the EC50 is 6.8 nM in the data set with T lymphocyte (Mus musculus, T-lymphocyte, 48 h, read-out: ED50 for inhibiting T lymphocyte proliferation induced by ConA) and 6.6 nM in the data set with B lymphocyte (Mus musculus, Lymphocyte, 60 h, read-out: ED50 for inhibiting B lymphocyte proliferation induced by LPS). In addition, the IC50 in the data set with lymphocyte (Lymphocyte, read-out: IC50 (concentration required to reduce the viability of cells by 50%), mouse spleen cells, 48 hours, MTT) is 0.00074 µg/mL and 2 nM; in the data set “MTT cytotoxic assay”, 2 nM. Further, the “ED50 for inhibiting B lymphocyte proliferation induced by LPS” value with B lymphocyte (60 h) came out at 2.38 ng/mL. For the same compound, the “Body weight after i.p.” value in data set [2] (Table 8, i.p., dosage 40 (mg/kg), control 21.9) is listed as 21.2 g. Further, the “Body weight before i.p.” value in data set [2] (Table 8, i.p., dosage 40 (mg/kg), control 22.4) was 21.5 g. Moreover, the “Ear swelling X ± SD” value in data set [2] (Table 8, i.p., dosage 40 (mg/kg), control 22.7 ± 2.1) worked out at 17.7 ± 5.7 mg. Also, the Right ear in data set [2] (Table 8, i.p., dosage 40 (mg/kg), control 26.4) is given as 30.2 mg; in data set [2] (Table 9, p.o., dosage 0.2 mg/kg, control 25.9), 24.5 mg. For the same compound, the Left ear came out at 47.9 mg in data set [2] (Table 8, i.p., dosage 40 (mg/kg), control 49.1) and 41.2 mg in data set [2] (Table 9, p.o., dosage 0.2 mg/kg, control 49.3). Besides, the Spleen in data set [2] (Table 8, i.p., dosage 40 (mg/kg), control 154.0) amounted to 151.4 mg; in data set [2] (Table 9, p.o., dosage 0.2 mg/kg, control 125.8), 127.0 mg. For the same compound, in data set [2] (Table 9, p.o., dosage 0.2 mg/kg, control 19), the “Body weight after (i.p.)” value is listed as 20 g. Further, the “Body weight before (i.p.)” value in data set [2] (Table 9, p.o., dosage 0.2 mg/kg, control 20) came out at 21 g. In data set [2] (Table 9, p.o., dosage 0.2 mg/kg, control 23.4), this compound registered an Ear swelling of 16.7 mg.

As for `CC(C)C12OC1C1OC13C1(C)CCC4=C(COC4=O)C1=CC1OC13C2O` (stereo not shown) [LLDT-18, Δ^5,6-dehydrotriptolide], the “Lymphocyte Proliferation (cpm) T cell” value in the data set on T lymphocyte (10^−6 M) came to 462 cpm; in the data set on T lymphocyte (10^−7 M) it was 53513 cpm; with T lymphocyte (10^−8 M), 92807 cpm. For the same compound, the results for the “Cytotoxicity OD Value” in the data set with lymphocyte (10^−6 M), with lymphocyte (10^−7 M) and in the data set with lymphocyte (10^−8 M) were 0.039, 0.295 and 0.367, respectively. For the same compound, the “Lymphocyte Proliferation (cpm) B cell” value stood at 833 cpm in the data set with B lymphocyte (10^−6 M), 75147 cpm in the data set with B lymphocyte (10^−7 M) and 79808 cpm in the data set with B lymphocyte (10^−8 M).

For `CC(C)[C@]12O[C@H]1[C@@H]1O[C@@]13[C@@]1(C)CCC4=C(COC4=O)[C@]1(O)[C@@H](O)[C@@H]1O[C@@]13C2=O` [LLDT-17, cis-(5R, 6S)-5,6-dihydroxytriptonide], the melting point is 266 to 268 °C (dec.). The “Lymphocyte Proliferation (cpm) T cell” value in the data set on T lymphocyte (10^−6 M) turned out to be 84825 cpm. Besides, the “Lymphocyte Proliferation (cpm) T cell” value with T lymphocyte (10^−7 M) worked out at 67561 cpm. The “Lymphocyte Proliferation (cpm) T cell” value in the data set with T lymphocyte (10^−8 M) was determined as 74069 cpm. Also, the “Cytotoxicity OD Value” in the data set with lymphocyte (10^−6 M) was 0.310. Moreover, the “Cytotoxicity OD Value” with lymphocyte (10^−7 M) came to 0.355. The “Cytotoxicity OD Value” in the data set with lymphocyte (10^−8 M) was determined as 0.334. Besides, the “Lymphocyte Proliferation (cpm) B cell” value in the data set on B lymphocyte (10^−6 M) was found to be 82861 cpm. Moreover, the “Lymphocyte Proliferation (cpm) B cell” value with B lymphocyte (10^−7 M) stood at 76376 cpm. Also, in the data set with B lymphocyte (10^−8 M), the “Lymphocyte Proliferation (cpm) B cell” value is 73969 cpm.

For the origin of these results see patent publication US7626044B2, “Triptolide derivatives and their uses” (priority 2002, dated 2009).
